# Laboratory results from paper PMC11909128, “Identification and inhibition of PIN1-NRF2 protein–protein interactions through computational and biophysical approaches” (Scientific Reports, 2025).
# Where two headings read alike, the source gives them in different places. Square brackets hold non-standard residues; d marks the D form. Ends that are not written are not given here. Peptide text beside a SMILES is read from it. * marks the point of attachment. fluorescein = fluorescein label at the N-terminus via an aminohexanoic acid (Ahx) linker; FITC = O=C1OC2(c3ccc(O)cc3Oc3cc(O)ccc32)c2ccc(NC(=S)*)cc21; pS = N[C@@H](COP(=O)(O)O)C(=O)O; Ahx = NCCCCCC(=O)O
# B1: fluorescein-labelled NRF2(402-415) pSer408 phospho-peptide (peptide)
# peptide: {fluorescein-Ahx}-DMVQPL[pS]PSQGQST-OH
# notes: NRF2 (nuclear factor erythroid 2-related factor 2), residues 402-415, linker between the Neh6 and Neh1 domains; source: synthetic peptide, bought: China Peptides
# B2: fluorescein-labelled NRF2(209-222) pSer215 phospho-peptide (peptide)
# peptide: {fluorescein-Ahx}-ETTMVP[pS]PEAKLTE-OH
# notes: NRF2 (nuclear factor erythroid 2-related factor 2), residues 209-222, in the Neh7 domain; also called Peptide 1; source: synthetic peptide, bought: China Peptides
# B3: fluorescein-labelled NRF2(571-584) pSer577 phospho-peptide (peptide)
# peptide: {fluorescein-Ahx}-EDGKPY[pS]PSEYDLQ-OH
# notes: NRF2 (nuclear factor erythroid 2-related factor 2), residues 571-584, in the Neh3 domain; see recheck for residue 582; source: synthetic peptide, bought: China Peptides
# B4: Pintide (competitor, not labelled) (peptide)
# peptide: WFY[pS]PFLE
# notes: also called WW domain-selective Pintide; source: synthetic peptide, bought: China Peptides
# B5: Pintide, fluorescently labelled (peptide)
# peptide: WFY[pS]PFLE
# modifications: also: fluorescently labelled, site not given here
# notes: source: synthetic peptide, bought: China Peptides
# Key:
# PIN1-NRF2 interaction [1] = molecular target: T1, PIN1-NRF2 interaction (Homo sapiens, UniProt Q13526, M1N); assay: FP competition / ligand displacement assay: competitor titrated to fixed GST-PIN1 and fluorescently labelled NRF2 peptide; assay type: binding
# T1 construct: host or cells: E. coli BL21 (DE3)
# Protocol: Next, a competition binding assay was used to determine if Pintide competed for PIN1 binding with the NRF2 peptides in a concentration dependent manner. Thus, Pintide was titrated to a fixed concentration of GST-PIN1 (1 µM) and fluorescently labelled NRF2 peptide (10 nM).
# Thus, the inhibitors were titrated to a fixed concentration of GST-PIN1 (1 µM) and fluorescently labelled NRF2 peptide (10 nM).
# (§1) Fluorescence polarisation experiments were performed at room temperature in a buffer consisting of 5 mM HEPES pH 7.4, 30 mM NaCl, 0.1% v/v Tween20, and 1% v/v DMSO. Corning black, round-bottom, low-binding 384-well plates were utilized for all assays. The NRF2 mimicking fluorescein-labelled peptides, ETTMVPp[…] (NRF2_209-222^pSer215), DMVQPLp[…] (NRF2_402-415^pSer408), and EDGKPYp[…] (NRF2_571-584^pSer577) and the Pintide peptide (WFYpSPFLE) with the optimal binding for the WW domain were commercially purchased from China Peptides. For protein titration studies, GST-PIN1 was titrated to the fluorescently-labelled Nrf 2 phospho-peptides (10 nM) in the presence of a fixed concentration of PIN1 inhibitor (100 μM) or only DMSO as control group. To show PIN1 specificity, only GST protein was used as the control protein group. Fluorescence polarisation was measured using a CLARIOstar® Microplate Reader with an excitation wavelength of λex: 490/20 nm and an emission wavelength of λem: 535/20 nm. The binding affinities (Kd) were determined by sing GraphPad Prism 7 software, and sigmoidal curves were fitted using the equation: Y = Bottom + (Top − Bottom)/(1 + 10^((Log app.Kd − X) * HillSlope)), where Y represents the mP value, X denotes the log protein concentration, and Top and Bottom represent the plateaus in mP. Moreover, for the ligand displacement assays, the inhibitors were titrated to a fixed concentration of GST-PIN1 (1 μM) and fluorescently labelled NRF2 peptide (10 nM). The change in polarisation values were normalised to the DMSO control group and presented as percentage change.
# PIN1-NRF2 interaction [2] = molecular target: T1, PIN1-NRF2 interaction; assay: FP protein titration: GST-PIN1 titrated to fluorescently labelled NRF2 phospho-peptides in the presence of a fixed concentration of Pintide or PIN1 inhibitor; assay type: binding; conditions: for fold reduction in binding affinity of NRF2_209-222^pSer215 / fold reduction in binding affinity of NRF2_402-415^pSer408 / fold reduction in binding affinity of NRF2_571-584^pSer577: inhibitor 100 µM vs DMSO
# Protocol: First, GST-PIN1 was titrated to the fluorescently labelled Nrf 2 phospho-peptides (10 nM) in the presence of a fixed concentration of Pintide (10 µM).
# In this study, we integrated three different PIN1 inhibitors, including juglone, epigallocatechin gallate (EGCG), and KPT-6566 (Fig. 6a). […] First, GST-PIN1 was titrated to the fluorescently labelled NRF2 phospho-peptides (10 nM) in the presence of a fixed concentration of PIN1 inhibitor (100 µM).
# as §1
# GST-PIN1 [3] = molecular target: GST-PIN1 (Homo sapiens, UniProt Q13526, M1N); assay: Fluorescence polarisation (FP) direct binding: GST-PIN1 titrated to fluorescently labelled phospho-peptide; parameters: host or cells: E. coli BL21 (DE3); conditions: apparent Kd compared with Pintide
# Protocol: as §1, with “Moreover, for the ligand displacement assays, the inhibitors were titrated to a fixed concentration of GST-PIN1 (1 μM) and fluorescently labelled NRF2 peptide (10 nM). The change in polarisation values were normalised to the DMSO control group and presented as percentage change.” left out
# PIN1 [4] = molecular target: T2, PIN1 (Homo sapiens, UniProt Q13526); assay: Denaturing mass spectrometry of PIN1 incubated with KPT-6566 (covalent modification); conditions: PIN1 10 µM, KPT-6566 30 µM, 1 h
# Protocol: KPT-6566 was previously shown to covalently modify the PIN1 PPIase domain at Cys113 via an unusual disulfide exchange of the sulfonyl-acetate moiety (KPT-65666-A, Fig. 7a)[31]. […] The remaining fragment of KPT-6566 (KPT-6566-B) was reported to be released into the cytoplasm. To verify this, we incubated PIN1 (10 µM) with KPT-6566 (30 µM) and then analysed the results by denaturing mass spectrometry. […] Of this, there was only a barely detectable trace of covalent PIN1 modification with KPT-6566-A (Supplementary Fig. 6a, b). […] Given these findings, the effects of both modes of covalent PIN1 modification by KPT-6566 on NRF2 phospho-peptide binding were subject to computational simulations.
# From protein stock, PIN1 was diluted into an assay buffer solution of 50 mM HEPES, 300 mM NaCl pH 7.4 to a final concentration 10 μM and incubated with KPT-6566 (30 μM) for 1 h. Then, the sample was 2-times diluted by using H2O containing 0.1% v/v formic acid solution to give a final protein concentration of 0.1–1 mg/mL, and mass spectra were obtained using a Waters Acquity XEVO Q ToF instrument.
# PIN1 [5] = molecular target: T2, PIN1; parameters: method as in PMID 28598431; conditions: disulfide exchange of the sulfonyl-acetate moiety at Cys113; cited from earlier work
# breast cancer cells = system: breast cancer cells; parameters: method as in PMID 28598431; conditions: breast cancer cells treated with KPT-6566; cited from earlier work
# GST-PIN1 [6] = molecular target: T3, GST-PIN1 (UniProt Q13526 1-163, methionine (Met 1) mutated to asparagine (Asn 1)); assay: FP; 100 uM juglone
# T3 sequence (Q13526 other isoform, or with tags, fused parts or gaps methionine (Met 1) mutated to asparagine (Asn 1)): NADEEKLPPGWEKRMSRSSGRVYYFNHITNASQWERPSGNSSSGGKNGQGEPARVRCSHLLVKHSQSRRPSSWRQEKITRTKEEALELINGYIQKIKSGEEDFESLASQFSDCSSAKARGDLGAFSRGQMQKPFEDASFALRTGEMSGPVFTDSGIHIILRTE
# GST-PIN1 [7] = molecular target: T4, GST-PIN1 (UniProt Q13526 1-163, methionine (Met 1) mutated to asparagine (Asn 1)); assay: fluorescence polarisation; GST-PIN1 (or GST) titrated to fluorescently labelled peptide (10 nM); room temperature; 5 mM HEPES pH 7.4, 30 mM NaCl, 0.1% v/v Tween20, 1% v/v DMSO; apparent Kd, variable slope dose-response fit; conditions: both partners purified
# T4 construct: peptidyl-prolyl cis-trans isomerase PIN1 from the GST-PIN1 plasmid (Addgene #19027); also called GST-tagged PIN1 construct; source: E. coli BL21 (DE3), purified (Glutathione spin columns)
# T4 sequence (Q13526 other isoform, or with tags, fused parts or gaps with the stated changes): as the sequence (Q13526 other isoform, or with tags, fused parts or gaps methionine (Met 1) mutated to asparagine (Asn 1)) above
# GST-PIN1 [8] = molecular target: T3, GST-PIN1; assay: FP; 10 uM Pintide
# GST-PIN1 [9] = molecular target: T3, GST-PIN1; assay: FP; 100 uM KPT-6566
# GST-PIN1 [10] = molecular target: T3, GST-PIN1; assay: FP; 100 uM EGCG
# GST-PIN1 [11] = molecular target: T4, GST-PIN1; assay: fluorescence polarisation; competition: Pintide titrated to GST-PIN1 (1 uM) and fluorescently labelled NRF2(571-584) pSer577 peptide (10 nM); conditions: both partners purified
# GST-PIN1 [12] = molecular target: T4, GST-PIN1; assay: fluorescence polarisation; competition: Pintide titrated to GST-PIN1 (1 uM) and fluorescently labelled NRF2(209-222) pSer215 peptide (10 nM); conditions: both partners purified
# GST-PIN1 [13] = molecular target: T4, GST-PIN1; assay: fluorescence polarisation; competition: Pintide titrated to GST-PIN1 (1 uM) and fluorescently labelled NRF2(402-415) pSer408 peptide (10 nM); conditions: both partners purified
# [14] = GST-PIN1 1 µM, labelled NRF2_402-415^pSer408 10 nM, read-out: IC50, inhibition of NRF2_402-415^pSer408 binding to PIN1
# [15] = GST-PIN1 1 µM, labelled NRF2_571-584^pSer577 10 nM, read-out: IC50, inhibition of NRF2_571-584^pSer577 binding to PIN1
# T2 sequence (Q13526 whole entry, the tested form may be a part): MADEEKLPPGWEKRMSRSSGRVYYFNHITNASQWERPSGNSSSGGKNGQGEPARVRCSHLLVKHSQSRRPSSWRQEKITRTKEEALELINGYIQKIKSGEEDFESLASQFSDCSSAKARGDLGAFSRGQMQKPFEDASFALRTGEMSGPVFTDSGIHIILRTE
# T1 sequence (Q13526 whole entry M1N): as the sequence (Q13526 other isoform, or with tags, fused parts or gaps methionine (Met 1) mutated to asparagine (Asn 1)) above
# Sequence of GST-PIN1 (Homo sapiens, UniProt Q13526, M1N) (Q13526 whole entry M1N): as the sequence (Q13526 other isoform, or with tags, fused parts or gaps methionine (Met 1) mutated to asparagine (Asn 1)) above
molecule,measurement,setting,value
O=C1C=CC(=O)c2c(O)cccc21 [juglone],IC50,"PIN1-NRF2 interaction [1]; GST-PIN1 1 µM, labelled NRF2_209-222^pSer215 10 nM, read-out: IC50, inhibition of NRF2_209-222^pSer215 binding to PIN1",26.8 µM
same,IC50,PIN1-NRF2 interaction [1]; [14],20 µM
same,IC50,PIN1-NRF2 interaction [1]; [15],30 µM
same,fold reduction in binding affinity of NRF2_209-222^pSer215,PIN1-NRF2 interaction [2],8 fold
same,fold reduction in binding affinity of NRF2_402-415^pSer408,PIN1-NRF2 interaction [2],18 fold
same,fold reduction in binding affinity of NRF2_571-584^pSer577,PIN1-NRF2 interaction [2],sixfold
"CSCC[C@H](NC(=O)[C@@H](NC(=O)[C@@H](NC(=O)[C@H](CCC(=O)O)NC(=O)CCCCCNC(=S)Nc1ccc2c(c1)C(=O)OC21c2ccc(O)cc2Oc2cc(O)ccc21)[C@@H](C)O)[C@@H](C)O)C(=O)N[C@H](C(=O)N1CCC[C@H]1C(=O)N[C@@H](COP(=O)(O)O)C(=O)N1CCC[C@H]1C(=O)N[C@@H](CCC(=O)O)C(=O)N[C@@H](C)C(=O)N[C@@H](CCCCN)C(=O)N[C@@H](CC(C)C)C(=O)N[C@H](C(=O)N[C@@H](CCC(=O)O)C(=O)O)[C@@H](C)O)C(C)C [NRF2_209-222^pSer215, ETTMVPpSPEAKLTE] ({FITC-Ahx}-ETTMVP[pS]PEAKLTE-OH; N-terminus assumed)",fold weaker interaction with PIN1 than the optimised Pintide ligand,GST-PIN1 [3],tenfold
CC(C)(C)c1ccc(S(=O)(=O)/N=C2\C=C(SCC(=O)O)C(=O)c3ccccc32)cc1 [KPT-6566],IC50,PIN1-NRF2 interaction [1]; [14],0.3 µM
same,IC50,PIN1-NRF2 interaction [1]; [15],1.4 µM
same,fold more potent than Juglone,"PIN1-NRF2 interaction [1]; IC50 comparison, ligand displacement assay",~ 20 fold
same,IC50,"PIN1-NRF2 interaction [1]; range over the three NRF2 phospho-peptides, read-out: IC50 range, inhibitory effect on PIN1-NRF2 interaction",0.3 to 1.4 µM
same,extent of covalent PIN1 modification,PIN1 [4],only a small amount of covalent PIN1 modification was observed
same,mass increase of the major modified PIN1 species,PIN1 [4],353 Da
same,fold reduction in binding affinity of NRF2_209-222^pSer215,PIN1-NRF2 interaction [2],25 fold
same,fold reduction in binding affinity of NRF2_402-415^pSer408,PIN1-NRF2 interaction [2],92 fold
same,fold reduction in binding affinity of NRF2_571-584^pSer577,PIN1-NRF2 interaction [2],149 fold
same,PIN1 mass increase,PIN1 [5],90 Da
same,NRF2-mediated oxidative stress elements (microarray analysis),breast cancer cells,upregulation
same,"NRF2 downstream enzymes cFOS, HO1, NQO1, TXNRD1, DNAJB9 at the mRNA level (quantitative RT-PCR)",breast cancer cells,upregulation
"CSCC[C@H](NC(=O)[C@H](CC(=O)O)NC(=O)CCCCCNC(=S)Nc1ccc2c(c1)C(=O)OC21c2ccc(O)cc2Oc2cc(O)ccc21)C(=O)N[C@H](C(=O)N[C@@H](CCC(N)=O)C(=O)N1CCC[C@H]1C(=O)N[C@@H](CC(C)C)C(=O)N[C@@H](COP(=O)(O)O)C(=O)N1CCC[C@H]1C(=O)N[C@@H](CO)C(=O)N[C@@H](CCC(N)=O)C(=O)NCC(=O)N[C@@H](CCC(N)=O)C(=O)N[C@@H](CO)C(=O)N[C@H](C(=O)O)[C@@H](C)O)C(C)C [NRF2_402-415^pSer408, DMVQPLpSPSQGQST] ({FITC-Ahx}-DMVQPL[pS]PSQGQST-OH; N-terminus assumed)",fold weaker interaction with PIN1 than the optimised Pintide ligand,GST-PIN1 [3],~ 13 fold
"O=C(O[C@@H]1Cc2c(O)cc(O)cc2O[C@@H]1c1cc(O)c(O)c(O)c1)c1cc(O)c(O)c(O)c1 [EGCG, epigallocatechin gallate]",inhibitory effect on the binding of any NRF2 phospho-peptide to PIN1,"PIN1-NRF2 interaction [2]; inhibitor 100 µM, all three NRF2 phospho-peptides",did not show any inhibitory effect
B1,Kd,GST-PIN1 [6],3.9 µM
same,Kd,GST-PIN1 [7],0.221 ± 0.04 µM
same,Kd,GST-PIN1 [8],1.59 µM
same,Kd,GST-PIN1 [9],20.2 µM
B2,Kd,GST-PIN1 [6],1.3 µM
same,Kd,GST-PIN1 [7],0.157 ± 0.015 µM
same,Kd,GST-PIN1 [8],1.07 µM
same,Kd,GST-PIN1 [9],4.04 µM
B3,Kd,GST-PIN1 [6],1 µM
same,Kd,GST-PIN1 [7],0.168 ± 0.025 µM
same,Kd,GST-PIN1 [10],0.2 µM
same,Kd,GST-PIN1 [8],1.76 µM
same,Kd,GST-PIN1 [9],25.3 µM
B4,IC50,GST-PIN1 [11],6.7 µM
same,IC50,GST-PIN1 [12],5.7 µM
same,IC50,GST-PIN1 [13],6.8 µM
B5,Kd,GST-PIN1 [7],0.017 ± 0.003 µM
